Measurements: ChEMBL document CHEMBL3352687, “Synthesis of N-glycan units for assessment of substrate structural requirements of N-acetylglucosaminyltransferase III” (Bioorg Med Chem Lett, 2014)
Calls of active or inactive are those of the source. The rule behind the calls is not given here.

assay: Competitive inhibition of human N-terminally His6-tagged N-acetylglucosaminyltransferase 3 expressed in HEK293T cells assessed as GN-GnGnbi-PAs molar ratio level at 100 to 500 uM incubated for 4 hrs using GnGnbi-PA acceptor substrate and UDP-GlcNAc donor substrate by reverse phase HPLC method; settings: HEK-293T

SMILES | inhibition
CO[C@H]1O[C@H](CO[C@H]2O[C@H](CO)[C@@H](O)[C@H](O)[C@@H]2O[C@@H]2O[C@H](CO)[C@@H](O)[C@H](O)[C@H]2NC(C)=O)[C@@H](O[C@@H]2O[C@H](CO)[C@@H](O)[C@H](O)[C@H]2NC(C)=O)[C@H](O[C@H]2O[C@H](CO)[C@@H](O)[C@H](O)[C@@H]2O[C@@H]2O[C@H](CO)[C@@H](O)[C@H](O)[C@H]2NC(C)=O)[C@@H]1O | Active
CO[C@H]1O[C@H](CO[C@H]2O[C@H](CO)[C@@H](O)[C@H](O)[C@@H]2O)[C@@H](O)[C@H](O[C@H]2O[C@H](CO)[C@@H](O)[C@H](O)[C@@H]2O)[C@@H]1O | inactive
CO[C@H]1O[C@H](CO[C@H]2O[C@H](CO)[C@@H](O)[C@H](O)[C@@H]2O)[C@@H](O[C@@H]2O[C@H](CO)[C@@H](O)[C@H](O)[C@H]2NC(C)=O)[C@H](O[C@H]2O[C@H](CO)[C@@H](O)[C@H](O)[C@@H]2O)[C@@H]1O | inactive
CO[C@H]1O[C@H](CO[C@H]2O[C@H](CO)[C@@H](O)[C@H](O)[C@@H]2O[C@@H]2O[C@H](CO)[C@@H](O)[C@H](O)[C@H]2NC(C)=O)[C@@H](O)[C@H](O[C@H]2O[C@H](CO)[C@@H](O)[C@H](O)[C@@H]2O[C@@H]2O[C@H](CO)[C@@H](O)[C@H](O)[C@H]2NC(C)=O)[C@@H]1O | Active
